Data taken from patent US20240261418A1, “SOS1 DEGRADING AGENT AND PREPARATION METHOD THEREFOR AND APPLICATION THEREOF” (SHANGHAI LEADINGTAC PHARMACEUTICAL CO. LTD., priority 2021, published 2024).

Legend:
KRAS-G12C/SOS1 = target: T1, KRAS-G12C/SOS1 (Homo sapiens, UniProt Q07889); test: KRAS-G12C/SOS1 binding assay (HTRF); conditions: inhibition of KRAS-G12C/SOS1 binding
T1 construct: purchased Cisbio 63ADK000CB16PEG
T1 sequence (Q07889 1-1333): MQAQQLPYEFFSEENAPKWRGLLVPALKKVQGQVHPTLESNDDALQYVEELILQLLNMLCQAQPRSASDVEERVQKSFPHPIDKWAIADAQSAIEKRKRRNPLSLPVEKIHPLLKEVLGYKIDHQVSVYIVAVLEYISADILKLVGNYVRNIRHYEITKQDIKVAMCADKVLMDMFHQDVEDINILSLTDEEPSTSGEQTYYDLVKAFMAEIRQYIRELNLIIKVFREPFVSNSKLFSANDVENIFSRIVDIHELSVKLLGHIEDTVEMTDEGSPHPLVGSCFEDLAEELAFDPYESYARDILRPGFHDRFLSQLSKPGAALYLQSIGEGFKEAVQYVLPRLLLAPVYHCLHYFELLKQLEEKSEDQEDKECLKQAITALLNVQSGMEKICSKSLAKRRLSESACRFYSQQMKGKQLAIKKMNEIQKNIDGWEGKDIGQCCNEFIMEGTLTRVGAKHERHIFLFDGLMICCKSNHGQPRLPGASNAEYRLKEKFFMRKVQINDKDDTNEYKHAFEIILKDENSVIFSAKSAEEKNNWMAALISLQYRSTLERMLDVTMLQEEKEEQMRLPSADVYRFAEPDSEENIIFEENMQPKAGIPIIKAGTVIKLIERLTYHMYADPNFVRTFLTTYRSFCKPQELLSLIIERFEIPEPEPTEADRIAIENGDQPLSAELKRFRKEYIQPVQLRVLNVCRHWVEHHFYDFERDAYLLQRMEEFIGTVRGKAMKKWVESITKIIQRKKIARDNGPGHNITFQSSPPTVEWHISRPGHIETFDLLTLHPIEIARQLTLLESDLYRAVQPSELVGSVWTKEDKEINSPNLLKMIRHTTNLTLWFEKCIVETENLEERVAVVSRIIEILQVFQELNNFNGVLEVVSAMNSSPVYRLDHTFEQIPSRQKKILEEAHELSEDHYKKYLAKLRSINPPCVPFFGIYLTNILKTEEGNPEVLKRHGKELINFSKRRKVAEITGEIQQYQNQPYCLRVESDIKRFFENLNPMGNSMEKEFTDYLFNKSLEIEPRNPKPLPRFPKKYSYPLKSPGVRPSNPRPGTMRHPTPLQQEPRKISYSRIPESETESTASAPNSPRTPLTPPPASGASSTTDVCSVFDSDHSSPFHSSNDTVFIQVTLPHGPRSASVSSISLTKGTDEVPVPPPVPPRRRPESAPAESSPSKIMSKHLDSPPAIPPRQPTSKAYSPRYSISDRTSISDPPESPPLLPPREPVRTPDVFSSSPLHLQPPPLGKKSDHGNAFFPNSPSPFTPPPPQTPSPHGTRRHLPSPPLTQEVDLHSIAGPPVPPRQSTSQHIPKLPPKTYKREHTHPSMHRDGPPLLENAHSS
Procedure: Test Example 1: KRAS-G12C/SOS1 Binding Assay
The following method was used to determine the extent of inhibition of KRAS-G12C/SOS1 binding by the preferred compounds of the present invention under in vitro conditions. In this method, the competitive inhibition of KRAS-G12C/SOS1 binding by the preferred compounds was assayed by the homogeneous time-resolved fluorescence (HTRF) technology using the KRAS-G12C/SOS1 binding assay kit (Cisbio, 63ADK000CB16PEG).
The experimental procedures were as follows (refer to the kit instructions for details): the compounds of the present invention were each firstly dissolved in DMSO at a concentration of 20 mM, and then diluted in an equal gradient with a buffer in the kit, so that the final concentrations of the test compounds in the reaction system were in a range of 10000 nM-0.04 nM, and the final concentration of DMSO was 0.5%. 2 μL of the compounds were each incubated with 4 μL of 1×Tag1-SOS1, 4 μL of 1×Tag2-KRAS-G12C (containing 10 μM guanosine triphosphate, GTP) at 25° C. for 15 min. Then 5 μL of 1×Anti-Tag1-Tb3+ and 5 μL of 1×Anti-Tag2-XL665 were added to the reaction system, and the mixture was incubated on ice for 3 h. After the incubation, the fluorescence intensity of each well was measured at the excitation wavelength of 337 nm, the fluorescence intensity of each well was read at the emission wavelengths of 620 nm and 665 nm on a microplate reader EnVision (PerkinElmer, 2105) in an HTRF mode, and the Ratio value was calculated by the formula Ratio=(665 nm/620 nm)×[…]. The inhibition rates of the compounds at each concentration were calculated by comparing the fluorescence intensity ratio with that of the control group, and then nonlinear curve fitting was performed by GraphPad Prism 8 in the logarithmic concentration-inhibition rate to obtain the IC50 values of the compounds, as shown in Table 1.

SOS1 protein = target: T2, SOS1 protein (Homo sapiens, UniProt Q07889); test: SOS1 degradation assay (Western blot) in NCI-H358 cells; format: cell-based; conditions: NCI-H358 (KRAS G12C), 24 h
T2 sequence (Q07889 1-1333): T1 sequence (Q07889 1-1333)
Procedure: The specific procedures were as follows:
0.95 mL of cells were seeded into each well of a 24-well cell culture plate to achieve a cell density of 5×10^5 cells/well; the cell plate was incubated in an incubator at 37° C. with 5% CO2 overnight. Then 50 μL of the compound solution after dilution was added to each of the wells with the corresponding cells, so that the final concentration of the compound was in a range of 0.03-3000 nM.
After dosing, the cell plate was incubated in an incubator at 37° C. with 5% CO2 for 24 h. […] After the plate was left to stand on ice for 30 min, the protein lysate in each well was transferred to a 1.5 mL centrifuge tube and centrifuged at 15000 g for 20 min at 4° C. The cell lysate supernatant after centrifugation was cryopreserved at −80° C. for testing and was used for determining the degradation level of the SOS1 protein by a WB method. The concentration of total protein in the cell lysate supernatant was determined using the BCA Protein Quantification Kit (Tiangen, PA115-02).
The concentration of total protein in the cell lysate was determined by BCA. The total protein was adjusted to 0.5 μg/μL with PBS and 5×SDS- PAGE protein loading buffer (Beyotime, P001L), incubated in a water bath at 100° C. for 15 min, incubated in an ice bath on ice for 5 min, centrifuged at 14000 g for 1 min at 4° C., and mixed well as a loading sample for WB. Protein electrophoresis was performed on a precast gel (KeyGEN, KGMG010W15) with a loading volume of 10 μL (total protein: 5 μg) using a Tris-MOPS-SDS running solution (Adamas, P1598253) at a constant voltage of 120 V for 55 min. After the electrophoresis, the protein on the gel strip was transferred to a PVDF membrane at a constant current of 250 mA for 65 min. After the membrane transfer, the membrane was incubated in 1× QuickBlock blocking buffer (Beyotime, P0235) for 30 min at room temperature. […] The protein map was subjected to gray value analysis by the chemiluminescence imaging system from Clinx. […] Then the degradation rate was calculated by comparing the gray correction value with the gray correction value of the control group. Then nonlinear curve fitting was performed by GraphPad Prism 8 in the logarithmic concentration-inhibition rate to obtain the DC50 and Dmax values of the compounds.

Q: `CNCc1ccccc1-c1csc([C@@H](C)Nc2nc(C)nc3cc(OC)c([C@H]4CC[C@H](C(=O)N5CCN(CC6CCC7(CC6)CCN(C(=O)c6ccc(Cl)c(N8CCC(=O)NC8=O)c6)CC7)CC5)CC4)cc23)c1` [Example 2, 1-(2-chloro-5-(9-((4-((1R,4R)-4-(7-methoxy-2-methyl-4-(((R)-1-(4-(2-((methylamino)methyl)phenyl)thien-2-yl)ethyl)amino)quinazolin-6-yl)cyclohexane-1-carbonyl)piperazin-1-yl)methyl)-3-azaspiro[5.5]undecane-3-carbonyl)phenyl)dihydropyrimidine-2,4(1H,3H)-dione] was tested. Which IC50 (KRAS-G12C/SOS1) did it give?
A: Its IC50 is no more than 15 nM.

Q: What about the DC50 (SOS1 protein) of the same compound?
A: The DC50 was less than 50 nM.

Q: And the Dmax (SOS1 protein)?
A: The Dmax was 80 to 100%.

Q: For `CNCc1ccccc1-c1csc([C@@H](C)Nc2nc(C)nc3cc(OC)c([C@H]4CC[C@H](C(=O)N5CCC(CCCC6CCN(C(=O)c7ccc(Cl)c(N8CCC(=O)NC8=O)c7)CC6)CC5)CC4)cc23)c1` [Example 3, 1-(2-chloro-5-(4-(3-(1-((1R,4R)-4-(7-methoxy-2-methyl-4-(((R)-1-(4-(2-((methylamino)methyl)phenyl)thien-2-yl)ethyl)amino)quinazolin-6-yl)cyclohexane-1-carbonyl)piperidin-4-yl)propyl)piperidine-1-carbonyl)phenyl)dihydropyrimidine-2,4(1H,3H)-dione], which IC50 (KRAS-G12C/SOS1) is on record?
A: The IC50 was 15 to 30 nM.

Q: What about the DC50 (SOS1 protein) of the same compound?
A: Its DC50 is 100 to 500 nM.

Q: What about the Dmax (SOS1 protein) of the same compound?
A: Its Dmax is 50 to 80%.

Q: `COc1cc2nc(C)nc(N[C@H](C)c3cc(-c4ccccc4CN(C)C)cs3)c2cc1[C@H]1CC[C@H](C(=O)N2CCN(CC3CCC4(CC3)CCN(C(=O)c3ccc(Cl)c(N5CCC(=O)NC5=O)c3)CC4)CC2)CC1` [Example 4, 1-(2-chloro-5-(9-((4-((1R,4R)-4-(4-(((R)-1-(4-(2-((dimethylamino)methyl)phenyl)thien-2-yl)ethyl)amino)-7-methoxy-2-methylquinazolin-6-yl)cyclohexane-1-carbonyl)piperazin-1-yl)methyl)-3-azaspiro[5.5]undecane-3-carbonyl)phenyl)dihydropyrimidine-2,4(1H,3H)-dione] was tested. Which IC50 (KRAS-G12C/SOS1) did it give?
A: The IC50 was no more than 15 nM.

Q: What about the DC50 (SOS1 protein) of the same compound?
A: The DC50 was 50 to 100 nM.

Q: And the Dmax (SOS1 protein)?
A: Its Dmax is 80 to 100%.

Q: With `COc1cc2nc(C)nc(N[C@@H](C)c3cc(N)cc(C(F)(F)F)c3)c2cc1[C@H]1CC[C@@H](C(=O)N2CCN(CCC3CCC4(CC3)CCN(C(=O)c3ccc(Cl)c(N5CCC(=O)NC5=O)c3)CC4)CC2)CC1` [Example 6, 1-(5-(9-(2-(4-((1S,4S)-4-(4-(((R)-1-(3-amino-5-(trifluoromethyl)phenyl)ethyl)amino)-7-methoxy-2-methylquinazolin-6-yl)cyclohexane-1-carbonyl)piperazin-1-yl)ethyl)-3-azaspiro[5.5]undecane-3-carbonyl)-2-chlorophenyl)dihydropyrimidine-2,4(1H,3H)-dione] as the compound, how does the DC50 (SOS1 protein) read?
A: Its DC50 is 1000 to 10000 nM.

Q: What about the “NCI-H358 (G12C) Dmax” value (SOS1 protein) of the same compound?
A: The value was “C (30≤Dmax (%)<50)”.

Q: For `CCNc1cc([C@@H](C)Nc2nc(C)nc3cc(OC)c([C@H]4CC[C@H](C(=O)N5CCN(CC6CCC7(CC6)CCN(C(=O)c6ccc(Cl)c(N8CCC(=O)NC8=O)c6)CC7)CC5)CC4)cc23)cc(C(F)(F)F)c1` [Example 7, 1-(2-chloro-5-(9-((4-((1R,4R)-4-(4-(((R)-1-(3-(ethylamino)-5-(trifluoromethyl)phenyl)ethyl)amino)-7-methoxy-2-methylquinazolin-6-yl)cyclohexane-1-carbonyl)piperazin-1-yl)methyl)-3-azaspiro[5.5]undecane-3-carbonyl)phenyl)dihydropyrimidine-2,4(1H,3H)-dione], which Dmax (SOS1 protein) is on record?
A: Its Dmax is 30 to 50%.

Q: With `COc1cc2nc(C)nc(N[C@H](C)c3cc(N)cc(C(F)(F)F)c3)c2cc1[C@H]1CC[C@H](C(=O)N2CCC(CCCN(C)C3CCN(Cc4ccc(Cl)c(N5CCC(=O)NC5=O)c4)CC3)CC2)CC1` [Example 10, 1-(5-((4-((3-(1-((1R,4R)-4-(4-(((R)-1-(3-amino-5-(trifluoromethyl)phenyl)ethyl)amino)-7-methoxy-2-methylquinazolin-6-yl)cyclohexane-1-carbonyl)piperidin-4-yl)propyl)(methyl)amino)piperidin-1-yl)methyl)-2-chlorophenyl)dihydropyrimidine-2,4(1H,3H)-dione] as the compound, how does the “NCI-H358 (G12C) Dmax” value (SOS1 protein) read?
A: Its value is “D (Dma (%)<30)”.

Q: Which “NCI-H358 (G12C) Dmax” value (SOS1 protein) does the source give for `COc1cc2nc(C)nc(N[C@H](C)c3cc(N)cc(C(F)(F)F)c3)c2cc1C1CCC(C(=O)N2CCC(CCOCC3CCN(C(=O)c4ccc5c(c4)C(=O)N(C4CCC(=O)NC4=O)C5=O)CC3)CC2)CC1` (stereo partly drawn) [Example 11, 5-(4-((2-(1-((1S,4S)-4-(4-(((R)-1-(3-amino-5-(trifluoromethyl)phenyl)ethyl)amino)-7-methoxy-2-methylquinazolin-6-yl)cyclohexane-1-carbonyl)piperidin-4-yl)ethoxy)methyl)piperidine-1-carbonyl)-2-(2,6-dioxopiperidin-3-yl)isoindoline-1,3-dione] here?
A: Its value is “A (80≤Dmax (%)≤100)”.

Q: `Cc1nc(N[C@H](C)c2cc(N)cc(C(F)(F)F)c2)c2cc([C@H]3CC[C@H](C(=O)N4CCN(CC5CCC6(CC5)CCN(C(=O)c5ccc(Cl)c(N7CCC(=O)NC7=O)c5)CC6)CC4)CC3)ncc2n1` [Example 50, 1-(5-(9-((4-((1R,4R)-4-(4-(((R)-1-(3-amino-5-(trifluoromethyl)phenyl)ethyl)amino)-2-methylpyrido[3,4-d]pyrimidin-6-yl)cyclohexane-1-carbonyl)piperazin-1-yl)methyl)-3-azaspiro[5.5]undecane-3-carbonyl)-2-chlorophenyl)dihydropyrimidine-2,4(1H,3H)-dione] was tested. Which “NCI-H358 (G12C) Dmax” value (SOS1 protein) did it give?
A: The value was “B (50≤Dmax (%)<80)”.
